Assay [1] relates to mouse reared in long-term isolation. Nature of the assay: Forced swimming test in mouse reared in long-term isolation (Test Example 6). The conditions noted are these: test 30 minutes after administration, 5 weeks isolation, FIG. 6. Format: in vivo, ddY mouse. The method, then:
The psychiatric disorder model mouse which was reared in isolation for 5 weeks was orally administered with the compound A and 30 minutes after the administration subjected to the Forced swimming test. The effect of improving depressive symptoms was examined.
The 3-weeks old male ddY mouse which was reared in isolation for 5 weeks in the same manner as in Test Example 3 was used for the test.
The compound A was dissolved in 2.5% DMSO solution in advance. After long-term isolated rearing the mice were divided into 3 groups of 7 mice and the administration groups of the compound A (the administration group of 30 mg/kg, the administration group of 10 mg/kg) and Vehicle group (the administration group of 2.5% DMSO solution) were set and the oral administration was carried out.
In 30 minutes after the oral administration, the forced swimming test was carried out in the same manner as in Test Example 5. The immobility time was measured during the test of 6 minutes and the depressive symptoms of the mouse was evaluated.
From the results obtained, the mean (Mean) and the standard error (SEM) were calculated. The significant difference was assessed between the compound A administration group and the Vehicle group by using Dunnett's test. The level of significance was set to *P<0.05. The vertical axis of the graph in FIG. 6 represents the immobility time during the test.

Assay [2] has the same test system. Put plainly: Novel object recognition test in psychiatric disorder model mouse reared in long-term isolation, single oral dose (Test Example 3). It counts as in vivo, ddY mouse. Conditions: tested 24 hours after administration; for exploratory time of the novel object versus Vehicle group: FIG. 3(A). The method, then: The action of ameliorating the lowering of the object cognitive function was examined by orally administering the compound A to the mouse reared in long-term isolation. […] In this test, the mouse reared in long-term isolation under the following condition was used as the psychiatric disorder model mouse.
3-weeks-old male ddY mice were purchased from Japan SLC, Inc. The mice were reared in the rearing chamber provided with air conditioner (Conditions: the temperature was 22° C.±1° C., the relative humidity was 50±10%, and the irradiation time was 12 hours (8:00 to 20:00)). The feeding method was that the commercially available MF powdery feed (manufactured by Oriental Yeast Co., ltd.) and tap water were taken freely.
3-weeks-old male ddY mice (n=63) were separately reared in the gray opaque cage (24×17×12 cm) in which the mice could not see the surrounding of the cage for 6 weeks. […] The mice (n=20) collectively reared in a group of 5 mice in the transparent cage (24×17×12 cm) were used as a control group.
Four days prior to the start of the experiment, long-term isolation and group-reared mice were individually acclimated to the test observation box for 10 minutes for three consecutive days. […]
24 hours after the oral administration, the evaluation test for novel object cognitive function was carried out. One object of two objects put in the observation box was replaced with the novel object and the time how long the mouse explored the novel object was measured in the test time of 5 minutes. The object cognitive function of the mouse was evaluated by Discrimination index (%) calculated using the following formula. […]
From the results obtained, the mean (Mean) and the standard error (SEM) were calculated. The significant difference was assessed between the administration group and the control group by using Student's t-test as a method of the statistical processing of the exploratory time and by using Turkey-Kramer's test as a method of the statistical processing of Discrimination index. […]

Consider `O=C1CC[C@H](Cc2cc(O)cc(O)c2)O1` [compound A, (R)-5-(3,5-dihydroxyphenyl)-γ-valerolactone], for which the “immobility time in forced swimming test versus vehicle group” value in assay [1] (oral 10 mg/kg) and in assay [1] (oral 30 mg/kg) was “significantly reduced” throughout. Further, the “exploratory time of the novel object versus Vehicle group” value in assay [2] (oral 10 mg/kg) and in assay [2] (oral 30 mg/kg) was “significantly increased” throughout. Further, the Discrimination index entry in assay [2] (oral 30 mg/kg, FIG. 3(B)) is “equal to the score obtained in the group of the mice reared in a group”.

Source of the values: patent publication US20250120942A1, “BRAIN FUNCTION IMPROVING AGENT” (OSAKA UNIVERSITY, priority 2021, published 2025).
